From patent US4874780A, “Anticancer compounds” (Norsk Hydro a.s., priority 1987, dated 1989)
Like-named read-outs stand apart in the source and are kept apart here.

Key:
NHIK 3025 cells [1] = test: Cell survival (colony formation) after 24 hr treatment; assay type: cell-based; details: Homo sapiens, NHIK3025, 24 h
Excerpt: (§1) Human cells of the established line NHIK 3025, originating from a cervical carcinoma in situ (Nordbye, K., and Oftebro, R. Exp. Cell Res., 58: 458, 1969), Oftebro, R., and Nordbye, K., Exp. Cell Res., 58: 459-460, 1969) were cultivated in Medium E2a (Puck, T.T. et al., J. Exp. Med., 106:145-165, 1957) supplemented with 20% human (prepared at the laboratory) and 10% horse serum (Grand Island Biological Co.). The cells are routinely grown as monolayers in tissue culture flasks.
(§2) The cells were kept in continuous exponential growth by frequent reculturing, i.e., every second and third day, and synchronized cell populations with a high degree of synchrony were obtained by repeated selection of mitotic cells (Pettersen, E. O. et al, Cell Tissue Kinet., 10: 511-522, 1977). During the synchronization procedure, the cells were kept in Medium E2a, and the whole experiment took place in a walk-in incubator at 37° C. Under growth conditions as used here, the NHIK 3025 cells have a medium cell-cycle time of ~18 hr, with medium G1, S1 and G2 durations of ~7, ~8, and ~2.5 hr, respectively.
For measurement of cell survival, appropriate numbers of cells were seeded in plastic Petri dishes (.phi.=5 cm). The number of cells seeded into each dish was adjusted such that the number of surviving cells would be approximately 150 per dish. While exponentially growing (asynchronous) cells were trypsinized before seeding, synchronized cells were seeded immediately after selection. After about 2 hr, the cells had attached to the bottom of the dishes, and the treatment was started by replacing the medium with medium containing the appropriate drug concentration. After the desired time of treatment, the drug-containing medium was removed, and fresh medium was added. The dishes were rinsed once with the same medium as was to be added on addition or removal of drug. After 10 to 12 days at 37° C. in a CO2 incubator, the cells were fixed in ethanol and stained with methylene blue before the colonies were counted.
The cytotoxic effect of benzaldehyde and of deuterobenzaldehyde-d1 was tested on asynchronous, exponentially growing NHIK 3025 cells by counting the number of cells able to form colonies after 24 hr treatment in Petri dishes. In Table 1 the results represent 2 different, independent experiments where the numbers give the mean fraction of surviving cells from 10 parallel dishes (± standard error).
Fraction of cells surviving 24 hr treatment with benzaldehyde or deuterobenzaldehyde - d1 in Petri dishes. (The values represent the mean±standard error from 10 different dishes.)

NHIK 3025 cells [2] = test: Protein synthesis rate ((3H)valine incorporation); assay type: cell-based, human; details: 3.2 mM
Excerpt: as §1, §2
The rate of protein synthesis was calculated as described previously (Ronning, O. W. et al., J. Cell Physiol., 107: 47-57, 1981). Briefly, cellular protein was labeled to saturation during a 2-day preincubation with (^14 C)valine of constant specific radioactivity (0.5 Ci/mol) prior to the experiment. This was achieved by using a high concentration of valine so that the dilution of (^14 C)valine by intracellular valine and by proteolytically generated valine will be negligible (Ronning, O. W., et al. Exp. Cell Res. 123: 63-72, 1979), thus keeping the specific radioactivity at a constant level. The rate of protein synthesis was calculated from the incorporation of (3H)valine of constant specific activity. The incorporation measurements were related to the total of (^14 C) radioactivity in protein at the beginning of the respective measurement periods and expressed as the percentage per hr (Ronning, O. W. et al, J. Cell, Physiol. 107: 47-57, 1981).
[…] The last measurements were done to test the reversibility of the drugs. Drug concentration: 3.2 mM.

[3] = Concentration of BG or BG-d1 in blood samples after iv injection (HPLC); assay type: in vivo, male Wistar rats
Description: Measurement of concentration of 4,6-O-benzylidene-D-glucose (BG) or 4,6-O-deuterobenzylidene-d1 -D-glucose (BG-d1) in blood samples (Table 5).
(§3) Blood samples were taken from male Wistar rats immediately before and at several intervals after intravenous injection of BG or BG-d1. Blood serum was separated by centrifugation. Equal amounts of blood serum and HPLC-grade acetonitrile were mixed and centrifuged at 13,000 rpm (15,000×g) for 5 minutes. Samples were then analyzed for BG or BG-d1 content by High Performance Liquid Chromatography (HPLC). Samples were placed in an autosampler programmed for replicate injections of […] each onto a 4.6×250 mm LC18 HPLC column. The column was eluted with 45% aqueous methanol delivered at 1 ml/min. BG or BG-d1 were detected by using a spectrofluorometer set at excitation and emission wavelengths of 255 and 283 nm, respectively. The slit width used was 10 nm. Quantitation of the amount of BG or BG-d1 in serum samples was performed with an electronic integrator calibrated with standard solutions of BG or BG-d1 in the mobile phase (Pettersen et al., Anticancer Res., 6; 147-152, 1986).
We have compared the metabolism in rats of BG as well as of deuterated BG (BG-d1). In Table 5 the serum concentration of BG or BG-d1 is shown at various time points after a single iv injection of each drug, respectively.

[4] = BG or BG-d1 metabolites in blood samples after iv injection (HPLC peak height); assay type: in vivo, male Wistar rats; details: rat
Description: as §3
Measurement of BG or BG-d1 metabolites in blood samples (Table 6)
HPLC of blood samples was performed as indicated above. Relative amounts of BG- or BG-d1 -metabolite were determined by peak height analysis. The peak height from the electronic integrator (in microvolts) of samples taken 30 minutes after iv injection of BG, or 60 minutes after iv injection of BG-d1 were normalized to 1. All other metabolite peaks were compared with these values.
At the same time as BG or BG-d1 metabolism was being determined, a separate metabolite peak appeared in HPLC chromatograms. The increase in BG- and BG-d1 -metabolite and subsequent clearance was measured.

Stability in vitro = assay type: in vitro ADME
NHIK 3025 cells [5] = details: Pettersen et al. 1983, cited from earlier work
NHIK 3025 cells [6] = test: Duration of cell cycle-time of synchronized cells; assay type: cell-based, human; details: 8 hr treatment
Excerpt: as §1, §2
(§4) For detection of the drug effects on cell-cycle kinetics, the same methods were used as described previously (Lindmo, T., and Pettersen, E. O., Cell Tissue Kinet., 12: 43-57, 1979), (Pettersen, E. O. et al, Eur. J. Cancer Clin. Oncol., 19: 507-514; 1983), (Ronning, O.W. et al., J. Cell. Physiol., 109: 411-419, 1981). Briefly, the selected mitotic cells were seeded into 8 tissue culture flasks (25 sq cm) 5000 cells per flask. The cells divided within 1 hr and attached as doublets to the bottom of the flasks. […] Analyses of durations of mitosis were performed from these observations (Table 4).
This is shown by the data in Table 3, where we have used synchronized cells treated over an 8 hr period starting 2 hr after mitotic selection, i.e. when the cells were in early Gl.

NHIK 3025 cells [7] = test: Duration of mitosis of synchronized cells; assay type: cell-based, human; details: 3.2 mM during mitosis
Excerpt: as §1, §2, §4
This effect is probably directly related to the aldehyde group (Pettersen et al. Cancer Res. 45: 2085-2091, 1985). If the deuterated aldehyde group induces different biological effects from the undeuterated one it is therefore good reason to expect this to be expressed as a difference in effect on cells in mitosis. In Table 4 results are shown on prolongation of mitosis of synchronized cells treated with benzaldehyde or deuterobenzaldehyde-d1 during mitosis. The numbers in the table represent the percentage of the cells having a duration of mitosis below 1 hr (which is normal for untreated cells) or above the number of hours indicated on top of each column.

NHIK 3025 cells [8] = details: previous studies; cited from earlier work
NHIK 3025 cells [9] = details: Pettersen et al. 1983, cited from earlier work; remark: listed apart in the source
NHIK 3025 cells [10] = details: previous studies (Pettersen et al. 1983), cited from earlier work
mucous membranes = details: pure form; cited from earlier work
[11] = read-out: Cell survival of cells treated for 24 hr
[12] = read-out: Fraction of cells surviving 24 hr treatment

## OC1O[C@@H]2COC(c3ccccc3)O[C@H]2[C@H](O)[C@H]1O (stereo partly drawn) [BG, 4,6-O-benzylidene-D-glucose]
NHIK 3025 cells [1]; [11]
  viability at 6400 µM: 30 ± 5%
  viability at 12800 µM: 0.78 ± 0.18%
NHIK 3025 cells [2]; asynchronous cells, 3 hr treatment, pulse 0-1 hr, during treatment, Table 8, control 5.7 ± 0.5
  Protein synthesis: 2.9 ± 0.7 %/hr
NHIK 3025 cells [2]; asynchronous cells, 3 hr treatment, pulse 2-3 hr, during treatment, Table 8, control 5.7 ± 0.5
  Protein synthesis: 2.9 ± 0.1 %/hr
NHIK 3025 cells [2]; synchronized cells, 22 hr treatment, pulse 21-22 hr, during treatment, Table 8, control 5.3 ± 0.2
  Protein synthesis: 4.8 ± 0.5 %/hr
NHIK 3025 cells [2]; synchronized cells, 22 hr treatment, pulse 23-24 hr, after treatment, Table 8, control 5.3 ± 0.2
  Protein synthesis: 5.5 ± 0.1 %/hr
[3]; in vivo
  half-life in vivo (in words): relatively short half-life in vivo
[3]; rat, iv, 60 minutes, N.F. = Not Found
  Amount of unmetabolized drug in blood samples: N.F.
[3]; serum, rat, iv, 0 minutes (estimated), read-out: Amount of unmetabolized drug in blood samples
  concentration at 0 h: 345 µM
[3]; serum, rat, iv, 2 minutes, read-out: Amount of unmetabolized drug in blood samples
  concentration at 2 min: 230 ± 16 µM
[3]; serum, rat, iv, 5 minutes, read-out: Amount of unmetabolized drug in blood samples
  concentration at 5 min: 110 ± 10 µM
[3]; serum, rat, iv, 10 minutes, read-out: Amount of unmetabolized drug in blood samples
  concentration at 10 min: 96 ± 15 µM
[3]; serum, rat, iv, 15 minutes, read-out: Amount of unmetabolized drug in blood samples
  concentration at 0.25 h: 66 ± 18 µM
[3]; serum, rat, iv, 20 minutes, read-out: Amount of unmetabolized drug in blood samples
  concentration at 20 min: 48 ± 11 µM
[3]; serum, rat, iv, 25 minutes, read-out: Amount of unmetabolized drug in blood samples
  concentration at 25 min: 40 ± 5 µM
[3]; serum, rat, iv, 30 minutes, read-out: Amount of unmetabolized drug in blood samples
  concentration at 0.5 h: 33 ± 8 µM
[3]; serum, rat, iv, read-out: half-life in vivo
  half-life: ~5 min
[4]; 30 minutes after iv injection, BG sample normalized to 1
  Relative amount of metabolite: 1.00
[4]; 45 minutes after iv injection, maximum peak = 1
  Relative amount of metabolite: 0.927 ± 0.008
Stability in vitro
  Period over which compound is stable in vitro: at least 24 hr
NHIK 3025 cells [5]
  Protein synthesis inhibition (in words): only protein synthesis inhibition is known to appear during treatment with BG

## O=Cc1ccccc1 [Benzaldehyde]
NHIK 3025 cells [1]; [12]
  viability at 3200 µM: 64 ± 18%
  viability at 12800 µM: 2.4 ± 0.8%
NHIK 3025 cells [2]; 4 hr treatment, pulse 0-1, during treatment, Table 2, control 6.8 ± 0.9
  Protein synthesis: 3.7 ± 0.3 %/hr
NHIK 3025 cells [2]; 4 hr treatment, pulse 4-5, after treatment, Table 2, control 6.8 ± 0.9
  Protein synthesis: 5.1 ± 0.3 %/hr
NHIK 3025 cells [2]; 4 hr treatment, pulse 5-6, after treatment, Table 2, control 6.8 ± 0.9
  Protein synthesis: 6.7 ± 0.5 %/hr
NHIK 3025 cells [6]; 2 mM, versus control 1
  Prolongation: 7.9%
NHIK 3025 cells [6]; 2 mM, control 1 16.5
  Duration of the part of the cell cycle starting 2 hr after selection: 17.8
NHIK 3025 cells [6]; 2.5 mM, versus control 2
  Prolongation: 63.7%
NHIK 3025 cells [6]; 2.5 mM, control 2 16.8
  Duration of the part of the cell cycle starting 2 hr after selection: 27.5
NHIK 3025 cells [7]
  Percentage of cells with duration of mitosis >4 h: 49%
  Percentage of cells with duration of mitosis >5 h: 35%
  Percentage of cells with duration of mitosis >6 h: 21%
NHIK 3025 cells [7]; control 2%
  Percentage of cells with duration of mitosis >3 h: 70%
NHIK 3025 cells [7]; control 4%
  Percentage of cells with duration of mitosis >2 h: 87%
NHIK 3025 cells [7]; control 17%
  Percentage of cells with duration of mitosis >1 h: 95%
NHIK 3025 cells [7]; control 83%
  Percentage of cells with duration of mitosis <1 h: 5%
NHIK 3025 cells [8]
  Inactivation of cells treated during mitosis (in words): inactivated efficiently by benzaldehyde
NHIK 3025 cells [5]
  Protein synthesis inhibition (in words): inhibit protein sythesis in a reversible manner
NHIK 3025 cells [5]; listed as benzaldehyde
  Protein synthesis inhibition (in words): protein synthesis inhibition
NHIK 3025 cells [9]
  Cell cycle progression (in words): inhibits cell cycle progression
NHIK 3025 cells [9]; listed as benzaldehyde
  Cell cycle progression (in words): cell-cycle progression is reduced
NHIK 3025 cells [10]
  Inhibition during mitosis (in words): induces specific inhibition during mitosis
NHIK 3025 cells [10]; listed as benzaldehyde
  Inhibition during mitosis (in words): specific prolongation of mitosis
Mucous membranes
  Irritating effect on mucous membranes: strongly irritating effect on mucous membranes
